According to US10882871B2, “18/19F-labelled compounds which target the prostate specific membrane antigen” (BRITISH COLUMBIA CANCER AGENCY BRANCH, priority 2016, dated 2021):
“And” between values parts separate entries of the source, which are not always exact repeats. Identical values can stand only once.

Tested on: tumors derived from LNCaP cells
Assay: PET/CT imaging and biodistribution of F-18 labeled HTK-01069 and HTK-01070 in tumor-bearing mice
Format: in vivo, mouse (NODSCID 1L2RγKO male mice)
Experimental: LNCap cell line used in the tumor model was obtained commercially from ATTC (LNCaP clone FGC, CRL-1740). It was established from a metastatic site of left supraclavicular lymph node of human prostatic adenocarcinoma. Cells were cultured in PRMI 1640 (StemCell Technologies, Vancouver, BC) supplemented by 10% FBS, 100 U/mL penicillin and 100 μg/mL streptomycin at 37° C. in a humidified incubator containing 5% CO2. Cells grown to 80-90% confluence were then washed with sterile phosphate-buffered saline (1×PBS pH 7.4) and trypsinization. The collected cells number was counted with Hemacytometer (Hausser Scientific).
Tumor implantation: Imaging and biodistribution experiments were performed using NODSCID 1L2RγKO male mice. Three or four mice in each cage equipped with enrichments. The mice were maintained and the experiments were conducted in according to the guidelines established by Canadian Council on Animal Care and approved by Animal Ethics Committee of the University of British Columbia. Mice were housed under pathogen-free conditions and kept on twelve hours light and twelve hours dark cycle in the Animal Research Centre, British Columbia Cancer Research Centre, Vancouver, Canada.
Mice were anesthetized by inhalation with 2.5% isoflurane in 2.0 L/min of oxygen during cells implantation. Mice were implanted subcutaneously with 1×10^7 LNCaP cells behind left shoulder. Mice were imaged or used in biodistribution studies when the tumor grew up to reach 5-8 mm in diameter during 5-6 weeks.
PET/CT Imaging: PET imaging experiments were conducted using Siemens inveon micro PET/CT scanner. Each tumor bearing mouse was injected ˜6.44 MBq of F-18 labeled HTK-01069 and ˜7.08 MBq of F-18 labeled HTK-01070 through the tail vein under anesthesia. After one hour, the mice were sedated again with 2% isoflurane inhalation and positioned in the scanner. Static PET imaging was performed to determined activity uptake of tumor and other organs. A CT scan was obtained for localization and attenuation correction after segmentation for reconstructing the PET images. The data was acquired by scanning the mice for 10 minutes each. The mice were kept warm by a heating pad during acquisition. The mice were euthanized after imaging and followed by biodistribution. Please see FIGS. 2 and 3 of this specification for reconstructed PET images for 1L2RγKO mice injected with HTK-01069 and HTK-01070 respectively.
Blood was withdrawn immediately, and the organs of interest were quickly removed. Each organ was weighed and the tissue radioactivity was measured with a Cobra II gamma counter (Packard), normalized to the injected dose using a standard curve and expressed as the percentage of the injected dose per gram of tissue (% ID/g). Biodistribution data are shown for HTK-01069 in Tables 5, 6 and 7 and HTK-01070 in Tables 8, 9, 10 of the specification respectively.

[1] = 1 h p.i. with co-injection of 0.5 mg DCFPyL, Avg
[2] = 1 h p.i. with co-injection of 0.5 mg DCFPyL, single mice

Biodistribution Adrenals [1]: 0.20 % ID/g
Biodistribution Blood [1]: 0.46 % ID/g
Biodistribution Bone [1]: 0.12 % ID/g
Biodistribution Brain [1]: 0.02 % ID/g
Biodistribution Fat [1]: 0.04 % ID/g
Biodistribution Heart [1]: 0.22 % ID/g
Biodistribution Intestine [1]: 0.31 % ID/g
Biodistribution Kidney [1]: 2.11 % ID/g
Biodistribution Liver [1]: 0.06 % ID/g
Biodistribution Lung [1]: 0.09 % ID/g
Biodistribution Muscle [1]: 0.30 % ID/g
Biodistribution Pancreas [1]: 1.76 % ID/g
Biodistribution Seminal [1]: 1.87 % ID/g
Biodistribution Spleen [1]: 0.06 % ID/g
Biodistribution Stomach [1]: 0.09 % ID/g
Biodistribution Tail [1]: 0.38 % ID/g
Biodistribution Testes [1]: 0.08 % ID/g
Biodistribution Tumour [1]: 0.27 % ID/g
Biodistribution Brain [2]: 0.02 % ID/g
Biodistribution Spleen [2]: 0.06 % ID/g and 0.05 % ID/g
Biodistribution Adrenals (1 h p.i., Avg): 4.65 % ID/g
Biodistribution Blood (1 h p.i., Avg): 0.52 % ID/g
Biodistribution Bone (1 h p.i., Avg): 0.44 % ID/g
Biodistribution Brain (1 h p.i., Avg): 0.04 % ID/g
Biodistribution Fat (1 h p.i., Avg): 0.73 % ID/g
Biodistribution Heart (1 h p.i., Avg): 0.33 % ID/g
Biodistribution Intestine (1 h p.i., Avg): 0.33 % ID/g
Biodistribution Kidney (1 h p.i., Avg): 71.70 % ID/g
Biodistribution Liver (1 h p.i., Avg): 1.69 % ID/g
Biodistribution Lung (1 h p.i., Avg): 1.39 % ID/g
Biodistribution Muscle (1 h p.i., Avg): 0.23 % ID/g
Biodistribution Pancreas (1 h p.i., Avg): 0.33 % ID/g
Biodistribution Seminal (1 h p.i., Avg): 3.13 % ID/g
Biodistribution Spleen (1 h p.i., Avg): 5.01 % ID/g
Biodistribution Stomach (1 h p.i., Avg): 0.10 % ID/g
Biodistribution Tail (1 h p.i., Avg): 0.76 % ID/g
Biodistribution Testes (1 h p.i., Avg): 0.67 % ID/g
Biodistribution Tumour (1 h p.i., Avg): 8.28 % ID/g
Biodistribution Adrenals (2 h p.i., Avg): 1.79 % ID/g
Biodistribution Blood (2 h p.i., Avg): 0.16 % ID/g
Biodistribution Bone (2 h p.i., Avg): 0.10 % ID/g
Biodistribution Brain (2 h p.i., Avg): 0.02 % ID/g
Biodistribution Fat (2 h p.i., Avg): 0.38 % ID/g
Biodistribution Heart (2 h p.i., Avg): 0.47 % ID/g
Biodistribution Intestine (2 h p.i., Avg): 0.25 % ID/g
Biodistribution Kidney (2 h p.i., Avg): 42.78 % ID/g
Biodistribution Liver (2 h p.i., Avg): 0.05 % ID/g
Biodistribution Lung (2 h p.i., Avg): 0.09 % ID/g
Biodistribution Muscle (2 h p.i., Avg): 0.35 % ID/g
Biodistribution Pancreas (2 h p.i., Avg): 1.50 % ID/g
Biodistribution Seminal (2 h p.i., Avg): 6.41 % ID/g
Biodistribution Spleen (2 h p.i., Avg): 0.17 % ID/g
Biodistribution Stomach (2 h p.i., Avg): 1.30 % ID/g
Biodistribution Tail (2 h p.i., Avg): 0.56 % ID/g
Biodistribution Testes (2 h p.i., Avg): 0.28 % ID/g
Biodistribution Tumour (2 h p.i., Avg): 6.84 % ID/g
Biodistribution Brain (2 h p.i., single mice): 0.02 % ID/g and 0.03 % ID/g
SMILES: C[N+](C)(Cc1cn(Cc2ccc(C(=O)NCCCC[C@H](NC(=O)N[C@@H](CCC(=O)O)C(=O)O)C(=O)O)cc2)nn1)C[B-](F)(F)[18F] [F-18 HTK-01070]
Biodistribution Adrenals [2]: 0.23 % ID/g and 0.26 % ID/g and 0.17 % ID/g and 0.16 % ID/g
Biodistribution Heart [2]: 0.21 % ID/g and 0.27 % ID/g and 0.20 % ID/g and 0.19 % ID/g
Biodistribution Intestine [2]: 0.31 % ID/g and 0.30 % ID/g and 0.28 % ID/g and 0.32 % ID/g
Biodistribution Kidney [2]: 2.40 % ID/g and 2.05 % ID/g and 1.96 % ID/g
Biodistribution Liver [2]: 0.06 % ID/g and 0.08 % ID/g and 0.07 % ID/g and 0.05 % ID/g
Biodistribution Lung [2]: 0.11 % ID/g and 0.10 % ID/g and 0.07 % ID/g and 0.08 % ID/g
Biodistribution Muscle [2]: 0.31 % ID/g and 0.38 % ID/g and 0.23 % ID/g and 0.29 % ID/g
Biodistribution Pancreas [2]: 1.92 % ID/g and 1.65 % ID/g and 1.88 % ID/g and 1.57 % ID/g
Biodistribution Stomach [2]: 0.09 % ID/g and 0.14 % ID/g and 0.07 % ID/g
Biodistribution Tail [2]: 0.45 % ID/g and 0.35 % ID/g and 0.36 % ID/g
Biodistribution Testes [2]: 0.09 % ID/g and 0.10 % ID/g and 0.06 % ID/g
Biodistribution Tumour [2]: 0.35 % ID/g and 0.26 % ID/g and 0.21 % ID/g
Biodistribution Blood (1 h p.i., single mice): 0.46 % ID/g and 0.63 % ID/g and 0.50 % ID/g and 0.51 % ID/g
Biodistribution Bone (1 h p.i., single mice): 0.37 % ID/g and 0.33 % ID/g and 0.58 % ID/g and 0.52 % ID/g and 0.38 % ID/g and 0.45 % ID/g
Biodistribution Brain (1 h p.i., single mice): 0.03 % ID/g and 0.04 % ID/g and 0.05 % ID/g
Biodistribution Heart (1 h p.i., single mice): 0.36 % ID/g and 0.47 % ID/g and 0.37 % ID/g and 0.27 % ID/g and 0.24 % ID/g and 0.28 % ID/g
Biodistribution Intestine (1 h p.i., single mice): 0.26 % ID/g and 0.32 % ID/g and 0.42 % ID/g and 0.37 % ID/g and 0.31 % ID/g
Biodistribution Kidney (1 h p.i., single mice): 62.45 % ID/g and 54.11 % ID/g and 52.66 % ID/g and 91.10 % ID/g and 76.59 % ID/g and 93.32 % ID/g
Biodistribution Liver (1 h p.i., single mice): 1.51 % ID/g and 1.53 % ID/g and 1.65 % ID/g and 1.90 % ID/g and 1.60 % ID/g and 1.94 % ID/g
Biodistribution Lung (1 h p.i., single mice): 1.32 % ID/g and 1.35 % ID/g and 1.24 % ID/g and 1.21 % ID/g and 1.59 % ID/g and 1.61 % ID/g
Biodistribution Muscle (1 h p.i., single mice): 0.28 % ID/g and 0.21 % ID/g and 0.24 % ID/g and 0.17 % ID/g and 0.25 % ID/g and 0.22 % ID/g
Biodistribution Pancreas (1 h p.i., single mice): 0.30 % ID/g and 0.33 % ID/g and 0.35 % ID/g and 0.28 % ID/g and 0.32 % ID/g and 0.41 % ID/g
Biodistribution Spleen (1 h p.i., single mice): 5.58 % ID/g and 4.75 % ID/g and 5.97 % ID/g and 4.51 % ID/g and 4.95 % ID/g and 4.31 % ID/g
Biodistribution Stomach (1 h p.i., single mice): 0.08 % ID/g and 0.09 % ID/g and 0.10 % ID/g and 0.16 % ID/g and 0.12 % ID/g
Biodistribution Testes (1 h p.i., single mice): 0.94 % ID/g and 0.79 % ID/g and 0.49 % ID/g and 0.57 % ID/g and 0.58 % ID/g and 0.64 % ID/g
Biodistribution Tumour (1 h p.i., single mice): 7.56 % ID/g and 10.45 % ID/g and 8.06 % ID/g and 8.60 % ID/g and 8.31 % ID/g and 6.70 % ID/g
Biodistribution Heart (2 h p.i., single mice): 0.32 % ID/g and 0.58 % ID/g and 0.55 % ID/g and 0.44 % ID/g and 0.46 % ID/g
Biodistribution Intestine (2 h p.i., single mice): 0.21 % ID/g and 0.23 % ID/g and 0.26 % ID/g and 0.24 % ID/g and 0.32 % ID/g
Biodistribution Liver (2 h p.i., single mice): 0.04 % ID/g and 0.06 % ID/g and 0.05 % ID/g and 0.07 % ID/g
Biodistribution Muscle (2 h p.i., single mice): 0.31 % ID/g and 0.39 % ID/g and 0.27 % ID/g and 0.33 % ID/g and 0.44 % ID/g
Biodistribution Pancreas (2 h p.i., single mice): 1.30 % ID/g and 1.76 % ID/g and 1.41 % ID/g and 1.23 % ID/g and 1.80 % ID/g
Biodistribution Testes (2 h p.i., single mice): 0.23 % ID/g and 0.34 % ID/g and 0.26 % ID/g and 0.19 % ID/g and 0.36 % ID/g
Biodistribution Tumour (2 h p.i., single mice): 6.12 % ID/g and 6.47 % ID/g and 7.93 % ID/g
